Experimental data taken from patent US9447122B2, “Arginase inhibitors and methods of use thereof” (AstraZeneca AB, priority 2010, dated 2016).
Like-named read-outs stand apart in the source and are kept apart here.

Assays:
[1] = target: T1, human arginase I (Homo sapiens, UniProt P05089); assay: Arginase inhibition, QuantiChrom colorimetric urea assay, IC50 converted to Ki; format: biochemical
T1 sequence (P05089 1-322): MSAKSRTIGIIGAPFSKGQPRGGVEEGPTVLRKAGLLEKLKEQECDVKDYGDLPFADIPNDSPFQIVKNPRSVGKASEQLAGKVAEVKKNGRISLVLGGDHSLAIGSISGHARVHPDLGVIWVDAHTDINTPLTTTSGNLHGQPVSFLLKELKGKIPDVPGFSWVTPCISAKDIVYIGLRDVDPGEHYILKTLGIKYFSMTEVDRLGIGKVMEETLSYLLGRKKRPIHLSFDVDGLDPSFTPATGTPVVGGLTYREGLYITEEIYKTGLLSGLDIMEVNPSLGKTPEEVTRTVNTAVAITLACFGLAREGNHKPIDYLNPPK
Experimental: (§1) For some compounds, their inhibitory potency at pH 7.5 was compared to the inhibitory potency of ABH at pH 7.5.
(§2) Quantitative determination of arginase activity was performed in a 96-well format by a colorimetric method using the QuantiChrom™ Arginase Assay Kit available from BioAssay Systems (Hayward, Calif., Catalog No. DARG-200) according to the manufacturer's protocol. Modifications were made to reagent quantities to suit the assaying of a highly purified sample.
(§3) The intensity of the color was directly proportional to the arginase activity in the sample.
(§4) The rate of urea production was measured in the presence of twelve different concentrations of each potential inhibitor compound. In a typical assay, seven different compounds were tested relative to a control inhibitor (e.g. ABH) against one enzyme (either human ArgI or human ArgII) at a particular pH (either 9.5 or 7.5). The pH of the solution was controlled using an appropriate pH buffering compound at 60 mM concentrations; for example, 60 mM glycine (pH 9.5) or 60 mM HEPES (pH 7.5). The half maximal inhibitory concentration (IC50) was determined by constructing a dose-response curve.

[2] = target: T2, human arginase II (Homo sapiens, UniProt P78540); assay: as above; format: biochemical
T2 sequence (P78540 23-354): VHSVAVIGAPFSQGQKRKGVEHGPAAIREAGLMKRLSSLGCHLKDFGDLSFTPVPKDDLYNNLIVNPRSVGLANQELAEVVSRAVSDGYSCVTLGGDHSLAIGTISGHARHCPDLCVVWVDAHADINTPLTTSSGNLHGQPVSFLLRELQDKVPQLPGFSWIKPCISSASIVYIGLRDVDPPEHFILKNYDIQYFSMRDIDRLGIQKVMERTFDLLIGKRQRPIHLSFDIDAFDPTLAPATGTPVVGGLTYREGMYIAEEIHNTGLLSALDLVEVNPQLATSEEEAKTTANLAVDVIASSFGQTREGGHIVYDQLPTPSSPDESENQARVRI
Experimental: as §1, §2, §3, §4

[3] = Table 3, pH 7.5, read-out: human Arginase I pH 7.5, Ki assigned value
[4] = Table 3, pH 9.5, read-out: human Arginase I pH 9.5, Ki assigned value
[5] = Table 3, pH 7.5, read-out: human Arginase II pH 7.5, Ki assigned value
[6] = Table 3, pH 9.5, read-out: human Arginase II pH 9.5, Ki assigned value
[7] = Table 2, pH 7.5, read-out: human arginase I pH 7.5, Ki assigned value
[8] = Table 2, pH 9.5, read-out: human arginase I pH 9.5, Ki assigned value
[9] = Table 2, pH 7.5, read-out: human arginase II pH 7.5, Ki assigned value
[10] = Table 2, pH 9.5, read-out: human arginase II pH 9.5, Ki assigned value

Ki [1, 3] [µM] | Ki [1, 4] [µM] | Ki [2, 5] [µM] | Ki [2, 6] [µM] | Ki [1, 7] [µM] | Ki [1, 8] [µM] | Ki [2, 9] [µM] | Ki [2, 10] [µM] | Structure (SMILES)
< 0.01 | 0.011 to 0.05 | 0.011 to 0.05 | 0.051 to 0.1 |  |  |  |  | NC(CCCCB(O)O)(CCCN1CCN(Cc2cccc(F)c2F)CC1)C(=O)O (stereo not shown) [Example 7]
< 0.01 | 0.051 to 0.1 | 0.011 to 0.05 | 0.011 to 0.05 |  |  |  |  | NC(CCCCB(O)O)(CCCN1CCN(Cc2cccc(C(F)(F)F)c2)CC1)C(=O)O (stereo not shown) [Example 9]
 |  |  |  | < 0.01 | 0.011 to 0.05 | 0.011 to 0.05 | 0.011 to 0.05 | NC(CCCCB(O)O)(CCCN1CCN(Cc2ccc(F)cc2)CC1)C(=O)O (stereo not shown) [Example 11]
< 0.01 | 0.011 to 0.05 | < 0.01 | 0.011 to 0.05 |  |  |  |  | NC(CCCCB(O)O)(CCCN1CCN(CCc2ccccc2)CC1)C(=O)O (stereo not shown) [Example 14]
0.101 to 0.25 | 0.101 to 0.25 | > 0.4 | 0.051 to 0.1 |  |  |  |  | NC(CCCCB(O)O)(CCN1CCN(Cc2ccc(Cl)c(Cl)c2)CC1)C(=O)O (stereo not shown) [Example 15]
0.011 to 0.05 | 0.051 to 0.1 | 0.051 to 0.1 | 0.011 to 0.05 |  |  |  |  | NC(CCCCB(O)O)(CCCN1CCN(c2ccc(Cl)c(Cl)c2)CC1)C(=O)O (stereo not shown) [Example 16]
 |  |  |  | < 0.01 | 0.011 to 0.05 | 0.101 to 0.25 | 0.011 to 0.05 | NC(CCCCB(O)O)(CCCN1CCCCC1c1ccc(F)cc1)C(=O)O (stereo not shown) [Example 17]
0.011 to 0.05 | 0.011 to 0.05 | 0.101 to 0.25 | 0.101 to 0.25 |  |  |  |  | NC(CCCCB(O)O)(CCC1CCCCN1Cc1cc(F)cc(F)c1)C(=O)O (stereo not shown) [Example 20]
0.011 to 0.05 | 0.011 to 0.05 | 0.051 to 0.1 | 0.051 to 0.1 |  |  |  |  | NC(CCCCB(O)O)(CCC1CCCCN1Cc1ccc(F)c(F)c1)C(=O)O (stereo not shown) [Example 21]
< 0.01 | 0.011 to 0.05 | < 0.01 | 0.011 to 0.05 |  |  |  |  | NC(CCCCB(O)O)(CCCN1CCCC(c2ccccc2)C1)C(=O)O (stereo not shown) [Example 26, 2-amino-6-borono-2-(3-(3-phenylpiperidin-1-yl)propyl)hexanoic acid]
 |  |  |  | < 0.01 | < 0.01 | 0.051 to 0.1 | < 0.01 | NC(CCCCB(O)O)(CCCN1CCC(Cc2ccc(F)c(F)c2)CC1)C(=O)O (stereo not shown) [Example 28]
< 0.01 | 0.011 to 0.05 | < 0.01 | 0.051 to 0.1 |  |  |  |  | NC(CCCCB(O)O)(CCCN1CCC2(CC1)C(=O)NCN2c1ccccc1)C(=O)O (stereo not shown) [Example 31]
< 0.01 | < 0.01 | < 0.01 | 0.011 to 0.05 |  |  |  |  | NC(CCCCB(O)O)(CCCN1CCC(Oc2ccc(C(F)(F)F)cc2)CC1)C(=O)O (stereo not shown) [Example 34]
< 0.01 | < 0.01 | < 0.01 | 0.011 to 0.05 |  |  |  |  | COc1ccc(C2CCN(CCCC(N)(CCCCB(O)O)C(=O)O)CC2)cc1 (stereo not shown) [Example 37]
< 0.01 | < 0.01 | < 0.01 | 0.011 to 0.05 |  |  |  |  | NC(CCCCB(O)O)(CCCN1CCC(O)(Cc2ccccc2)CC1)C(=O)O (stereo not shown) [Example 39]
< 0.01 | < 0.01 | < 0.01 | 0.011 to 0.05 |  |  |  |  | NC(CCCCB(O)O)(CCCN1CCC(O)(c2ccc(Cl)cc2)CC1)C(=O)O (stereo not shown) [Example 40]
< 0.01 | 0.011 to 0.05 | < 0.01 | 0.011 to 0.05 |  |  |  |  | NC(CCCCB(O)O)(CCCN1CCN(c2ccc(C(F)(F)F)cn2)CC1)C(=O)O (stereo not shown) [Example 41]
< 0.01 | 0.011 to 0.05 | < 0.01 | 0.011 to 0.05 |  |  |  |  | NC(CCCCB(O)O)(CCCN1CCC(NC(=O)c2ccccc2)CC1)C(=O)O (stereo not shown) [Example 44]
< 0.01 | 0.011 to 0.05 | < 0.01 | 0.011 to 0.05 |  |  |  |  | NC(CCCCB(O)O)(CCCN1CCc2ccccc2C1)C(=O)O (stereo not shown) [Example 45]
0.011 to 0.05 | 0.011 to 0.05 | 0.011 to 0.05 | < 0.01 |  |  |  |  | CN1CCN(CCCC(N)(CCCCB(O)O)C(=O)O)C(c2ccccc2)C1 (stereo not shown) [Example 46]

Ki [1, 3] [µM] | Ki [1, 4] [µM] | Ki [2, 5] [µM] | Ki [2, 6] [µM] | Ki [1, 7] [µM] | Ki [1, 8] [µM] | Ki [2, 9] [µM] | Ki [2, 10] [µM] | Structure (SMILES)
0.011 to 0.05 | 0.051 to 0.1 | 0.011 to 0.05 | 0.101 to 0.25 |  |  |  |  | NC(CCCCB(O)O)(CCCN1CCCC1c1ccccc1C(F)(F)F)C(=O)O (stereo not shown) [Example 51]
0.011 to 0.05 | 0.011 to 0.05 | 0.011 to 0.05 | 0.051 to 0.1 |  |  |  |  | NC(CCCCB(O)O)(CCCN1CCCC1c1ccc(-c2ccccc2)cc1)C(=O)O (stereo not shown) [Example 54]
0.011 to 0.05 | 0.011 to 0.05 | 0.051 to 0.1 | 0.101 to 0.25 |  |  |  |  | NC(CCCCB(O)O)(CCCN1CCCC1)C(=O)O (stereo not shown) [Example 56]
< 0.01 | 0.011 to 0.05 | 0.011 to 0.05 | 0.051 to 0.1 |  |  |  |  | NC(CCCCB(O)O)(CCCN1CCC1)C(=O)O (stereo not shown) [Example 57]
< 0.01 | 0.011 to 0.05 | 0.011 to 0.05 | 0.011 to 0.05 |  |  |  |  | NC(CCCCB(O)O)(CCCN1CC(c2ccccc2)C1)C(=O)O (stereo not shown) [Example 58]
< 0.01 | < 0.01 | < 0.01 | 0.011 to 0.05 |  |  |  |  | NC(CCCCB(O)O)(CCCN1CC(NC(=O)Nc2ccc(Cl)c(Cl)c2)C1)C(=O)O (stereo not shown) [Example 60]
< 0.01 | 0.011 to 0.05 | 0.011 to 0.05 | 0.051 to 0.1 |  |  |  |  | NC(CCCCB(O)O)(CCCN1CCOCC1)C(=O)O (stereo not shown) [Example 64]
0.011 to 0.05 | 0.051 to 0.1 | 0.011 to 0.05 | > 0.4 |  |  |  |  | NC(CCCCB(O)O)(CCCN1CCSCC1)C(=O)O (stereo not shown) [Example 65]
< 0.01 | < 0.01 | < 0.01 | < 0.01 |  |  |  |  | NC(CCCCB(O)O)(CCCNCCc1ccccc1)C(=O)O (stereo not shown) [Example 67]
0.011 to 0.05 | 0.011 to 0.05 | 0.011 to 0.05 | 0.011 to 0.05 |  |  |  |  | CN(CCCC(N)(CCCCB(O)O)C(=O)O)CCc1ccccc1 (stereo not shown) [Example 68]
< 0.01 | < 0.01 | < 0.01 | 0.011 to 0.05 |  |  |  |  | NC(CCCCB(O)O)(CCCNC1CCCCC1)C(=O)O (stereo not shown) [Example 77]
0.011 to 0.05 | 0.011 to 0.05 | 0.051 to 0.1 | 0.011 to 0.05 |  |  |  |  | CN(CCCC(N)(CCCCB(O)O)C(=O)O)C1CCCCC1 (stereo not shown) [Example 78]
0.011 to 0.05 | 0.011 to 0.05 | 0.011 to 0.05 | 0.101 to 0.25 |  |  |  |  | COCCN(C)CCCC(N)(CCCCB(O)O)C(=O)O (stereo not shown) [Example 85]
0.051 to 0.1 | 0.011 to 0.05 | 0.051 to 0.1 | 0.051 to 0.1 |  |  |  |  | CN(C)CCN(C)CCCC(N)(CCCCB(O)O)C(=O)O (stereo not shown) [Example 88]
< 0.01 | < 0.01 | < 0.01 | 0.011 to 0.05 |  |  |  |  | CN(C)CCNCCCC(N)(CCCCB(O)O)C(=O)O (stereo not shown) [Example 89]
0.011 to 0.05 | 0.011 to 0.05 | > 0.4 | 0.011 to 0.05 |  |  |  |  | NC(CCCCB(O)O)(CCCCN1CCNCC1)C(=O)O (stereo not shown) [Example 93]
0.011 to 0.05 | 0.011 to 0.05 | < 0.01 | 0.011 to 0.05 |  |  |  |  | NC(CCCCB(O)O)(CCCCN1CCN(c2ccc(Cl)c(Cl)c2)CC1)C(=O)O (stereo not shown) [Example 94]
0.051 to 0.1 | < 0.01 | 0.011 to 0.05 | < 0.01 |  |  |  |  | NC(CCCCB(O)O)(CCCCN1CCC(Cc2ccc(F)c(F)c2)CC1)C(=O)O (stereo not shown) [Example 95]
0.011 to 0.05 | 0.011 to 0.05 | 0.011 to 0.05 | 0.011 to 0.05 |  |  |  |  | NC(CCCCB(O)O)(CCCCN1CCc2ccccc2C1)C(=O)O (stereo not shown) [Example 96]
< 0.01 | 0.011 to 0.05 | < 0.01 | 0.011 to 0.05 |  |  |  |  | NC(CCCCB(O)O)(CCCN1CCC(C(=O)c2ccc(F)cc2)CC1)C(=O)O (stereo not shown) [Example 101]
